Legend:
[1] = Inhibitory effect against collagen-induced platelet aggregation at a concentration of 100 ug/mL; assay type: functional
Rattus norvegicus [2] = species: Rattus norvegicus; experiment: vasodilatory effect for [Ca2+] antagonism in aortic arch isolated from WKY rats at a concentration of 0.1 uM; assay type: functional, Pharyngeal arch artery
Rattus norvegicus [3] = species: Rattus norvegicus; experiment: vasodilatory effect for [Ca2+] antagonism in aortic arch isolated from WKY rats at a concentration of 100 uM; assay type: functional, Pharyngeal arch artery
Rattus norvegicus [4] = species: Rattus norvegicus; experiment: vasodilatory effect for [Ca2+] antagonism in aortic arch isolated from WKY rats at a concentration of 1 uM; assay type: functional, Pharyngeal arch artery
Rattus norvegicus [5] = species: Rattus norvegicus; experiment: vasodilatory effect for [Ca2+] antagonism in aortic arch isolated from WKY rats at a concentration of 0.01 uM; assay type: functional, Pharyngeal arch artery
[6] = Inhibitory effect against U-46,619-induced platelet aggregation at a concentration of 1 uM; assay type: functional
Rattus norvegicus [7] = species: Rattus norvegicus; experiment: vasodilatory effect for [Ca2+] antagonism in aortic arch isolated from WKY rats at a concentration of 10 uM; assay type: functional, Pharyngeal arch artery
[8] = Inhibitory effect against arachidonic acid-induced platelet aggregation at a concentration of 100 uM; assay type: functional
[9] = Inhibitory effect against TXB2 formation in response to collagen-induced platelet aggregation at a concentration of 100 ug/mL; assay type: functional
[10] = Inhibitory effect against TXB2 formation in response to arachidonic acid-induced platelet aggregation at a concentration of 100 uM; assay type: functional

For `CC(C)C[C@@H]1NC(=O)[C@@H](CC(C)C)OC(=O)CCN(C)C(=O)[C@H](Cc2ccccc2)N(C)C(=O)[C@H](CC(C)C)OC1=O`, the IC50 [1] was greater than 150 µM, the Vasodilatory rate (Rattus norvegicus [2]) was 32.5% and the Vasodilatory rate (Rattus norvegicus [3]) was 78%. The Vasodilatory rate (Rattus norvegicus [4]) was 25.1%, the Vasodilatory rate (Rattus norvegicus [5]) was 11.5% and the IC50 [6] was greater than 200 µM. It also gave a Vasodilatory rate (Rattus norvegicus [7]) of 80.8% and an IC50 [8] greater than 200 µM.
Compound `CC(C)C[C@@H]1NC(=O)[C@@H](CC(C)C)NC(=O)CCNC(=O)[C@H](Cc2ccccc2)N(C)C(=O)[C@H](CC(C)C)OC1=O` has an IC50 [1] of 10 µM, a Vasodilatory rate (Rattus norvegicus [2]) of 35% and a Vasodilatory rate (Rattus norvegicus [4]) of 100%. For the same compound, the “Amount of TXB2 formation” value [9] was 25.6 ng/mL, the Vasodilatory rate (Rattus norvegicus [5]) was 29.3% and the “Amount of TXB2 formation” value [10] was 30.7 ng/mL. It also gave an IC50 [6] of 40 µM and an IC50 [8] of 30 µM.
`CC(C)C[C@@H]1NC(=O)[C@@H](CC(C)C)NC(=O)CCN(C)C(=O)[C@H](Cc2ccccc2)N(C)C(=O)[C@H](CC(C)C)OC1=O` showed an IC50 [1] greater than 150 µM, an IC50 [6] greater than 200 µM and an IC50 [8] greater than 200 µM.
For `CC(C)C[C@@H]1NC(=O)[C@@H](CC(C)C)OC(=O)CCNC(=O)[C@H](Cc2ccccc2)N(C)C(=O)[C@H](CC(C)C)OC1=O`, the IC50 [1] was 50 µM, the Vasodilatory rate (Rattus norvegicus [3]) was 66.5% and the Vasodilatory rate (Rattus norvegicus [4]) was 26.8%. The “Amount of TXB2 formation” value [9] was 39.4 ng/mL, the “Amount of TXB2 formation” value [10] was 55.4 ng/mL and the IC50 [6] was 150 µM. The Vasodilatory rate (Rattus norvegicus [7]) was 64.4% and the IC50 [8] was 150 µM.

From ChEMBL document CHEMBL1131946, “Synthesis and evaluation of backbone/amide-modified analogs of leualacin” (Bioorg Med Chem Lett, 1999)
